{"source": "paper PMC4128046", "about": "“Effect of a toggle switch mutation in TM6 of the human adenosine A3 receptor on Gi protein-dependent signalling and Gi-independent receptor internalization” (British Journal of Pharmacology, 2014)", "key": {"A3 W243F-YFP [1]": {"biological_target": "T1, A3 W243F-YFP (Homo sapiens, UniProt P0DMS8, W243F)", "T1 construct": "Full length A3 W243F-YFP was excised and subcloned into a native pcDNA3.1 vector; expressed in transfected cells", "T1 sequence (P0DMS8 1-318 W243F)": "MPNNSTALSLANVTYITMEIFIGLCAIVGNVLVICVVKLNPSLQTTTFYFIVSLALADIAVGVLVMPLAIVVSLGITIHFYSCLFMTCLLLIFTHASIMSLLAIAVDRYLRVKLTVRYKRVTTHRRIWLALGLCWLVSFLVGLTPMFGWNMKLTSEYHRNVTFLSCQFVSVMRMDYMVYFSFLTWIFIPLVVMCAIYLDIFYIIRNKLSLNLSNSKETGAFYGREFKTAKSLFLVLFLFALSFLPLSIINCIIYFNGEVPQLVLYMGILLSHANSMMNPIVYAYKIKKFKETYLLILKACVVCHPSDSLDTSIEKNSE", "assay": "Fluorescence-based competition binding assay with CA200645, A3 W243F-YFP", "details": "A3 W243F-YFP cells, 25 nM CA200645, 60 min, 37°C", "description": "On the day of analysis, normal growth medium was removed and cells washed once with HBSS pre-warmed to 37°C. […] Buffer was then removed from each well, cells washed once in HBSS and fresh HBSS added at room temperature. Plates were immediately imaged using an ImageXpress Ultra confocal plate reader, which captured four central images per well using a Plan Fluor 40× NA0.6 extra-long working distance objective. CA200645 was excited at 635 nm and emission collected through a 640–685 nm band pass filter. Total image intensity was obtained using a multiwave length cell scoring algorithm within MetaXpress software (Molecular Devices).\nTime course experiments were fitted using a one phase association equation which is as follows [drawing 2] where Yo represents the level of internalization at time (t) equal to zero, Plateau is the maximal internalization at infinite time and K is the rate constant in […]. Statistical significance was determined by Student's unpaired t-test or by one-way ANOVA with Dunnett's post hoc analysis and P < 0.05 was considered statistically significant."}, "A3 W243F-YFP [2]": {"biological_target": "T1, A3 W243F-YFP", "assay": "ERK1/2 phosphorylation assay (AlphaScreen SureFire), A3 W243F-YFP", "assay_type": "cell-based", "description": "Normal growth medium was replaced with serum-free medium for at least 4 h before analysis. Levels of ERK1/2 phosphorylation were measured using the AlphaScreen SureFire p-ERK assay kit (PerkinElmer). […] Medium was removed from each well and replaced with 40 μL SureFire lysis buffer. After shaking for 5 min, a 1:80:20:120 v v^−1 dilution of AlphaScreen beads : lysate : activation buffer : reaction buffer in a 5.5 μL total volume was transferred to a white opaque 384-well proxiplate in diminished light. After 2 h of incubation in the dark at room temperature, the fluorescence signal was measured with an EnVision plate reader (PerkinElmer) using standard AlphaScreen settings.\nA basal and FSK control was included in each separate concentration-response CRE-SPAP gene transcription assay and cAMP accumulation assay to allow the responses in each cell line to be expressed as an inhibition of FSK-stimulated SPAP production."}}}
{"smiles": "CCCCC#Cc1nc(NC)c2ncn([C@@H]3O[C@H](CO)[C@@H](O)[C@H]3O)c2n1", "note": "[HEMADO, 2-(1-hexynyl)-N-methyladenosine]", "values": [{"measurement": "Ki", "setting": "A3 W243F-YFP [1]", "value": 45.7, "unit": "nM"}, {"measurement": "EC50", "setting": "A3 W243F-YFP [2]; A3 W243F-YFP cells, 5 min stimulation, read-out: pEC50 (pERK1/2 assay) (converted)", "value": 19.5, "unit": "nM"}, {"measurement": "Emax", "setting": "A3 W243F-YFP [2]; read-out: Maximum response (% 10 μM NECA), pERK1/2 assay", "value": "16 ± 3.1", "unit": "%"}]}
